≈ marks a conversion by molar mass, not a printed value. Where “and” joins values, the source holds several entries; their conditions need not be identical. Equal values may be shown once. Read-outs that look alike come from different tables or passages of the source.
Key:
[1] = Hydrolysis kinetics in rat whole blood; type: in vitro ADME
Experimental: Kinetic analysis of Fer-Ger was performed by incubating the compound at 37 °C in heparinized whole blood obtained from healthy human volunteers or from male Wistar rats weighing 200–250 g. In particular, appropriate amounts of stock solution in DMSO were added to a volume of 3 mL of whole blood in order to obtain the final concentration of 30 µM (9.92 µg/mL). Samples (100 μL) were withdrawn at defined time intervals and immediately treated. Specifically, they were firstly added to ice-cold water (500 µL); then, sulfosalicylic acid (10%, 50 µL) and the internal standard (100 μM carbazole dissolved in a mixture of MeOH and H2O 50:50 v/v, 50 µL) were added; finally, 1 mL of H2O-saturated ethyl acetate was used twice as extraction solvent. The samples were centrifuged (13,500× g for 10 min) and the organic phase was evaporated under a nitrogen stream. The residue was re-suspended in a mixture of H2O and CH3CN (50:50 v/v, 150 µL) and centrifuged (16,000× g for 5 min). […] All the values were derived from the mean of three independent incubation experiments.
(§1) The Fer-Ger degradation in whole blood or homogenates was analyzed as exponential decay plots of its concentrations versus incubation time, and the related half-life values were obtained from the linear regression of the corresponding semi-logarithmic plots. The quality of the fits was evaluated by considering the correlation coefficients (r) and p values. The computer program GraphPad Prism 7 (GraphPad, San Diego, CA, USA) allowed to perform the calculations.
Fer-Ger and its hydrolysis product, Ger, were quantified by HPLC. The chromatographic apparatus consisted of a modular system (model LC-40D) pump and DAD detector (model SPD-M40, Shimadzu, Kyoto, Japan) and an injection valve with a 20 μL sample loop (model 7725; Rheodyne, IDEX, Torrance, CA, USA).

[2] = Hydrolysis kinetics in rat brain homogenates; type: in vitro ADME; settings: within 3 h, 37 °C, 30 µM
Experimental: Brains were obtained from male Wistar rats, which were sacrificed by decapitation after a slight isoflurane anesthesia. The brains were immediately separated and homogenized in 5 volumes (w/v) of Tris HCl (50 mM, pH 7.4, 4 °C) using an ultra-Turrax (IKA Werke GmbH & Co. KG, Staufen, Germany) with 3 × 15 s bursts. After centrifugation of the homogenate (3000× g for 15 min at 4 °C), the supernatant was isolated and stored at −80 °C until its use for in vitro kinetic studies. The Lowry procedure was adopted to quantify the total protein concentration in the brain homogenate, resulting in 7.4 ± 0.4 μg protein/μL.
Kinetic analysis of Fer-Ger was performed by its incubation at 37 °C in 3 mL of rat liver or brain homogenates at 30 µM (9.92 µg/mL) final concentration. At defined time intervals, 100 μL of homogenates were withdrawn and immediately treated by quenching them in EtOH (250 µL), then an internal standard (100 μM carbazole dissolved in EtOH, 50 µL) was added. […]
as §1, with “The computer program GraphPad Prism 7 (GraphPad, San Diego, CA, USA) allowed to perform the calculations.” left out
(§2) Fer-Ger and its hydrolysis product, Ger, were quantified by HPLC. […]

Solubility measurements = type: physicochemical; settings: 25 °C, thermodynamic from solid
Experimental: Solubility measurements of pure Fer-Ger were performed by adding an excess amount of Fer-Ger (about 10 mg) in 5 mL of pure water, DPBS, or a mixture made of DPBS and methanol (70:30 v/v) at 25 °C. The samples were magnetically stirred for 48 h. The supernatant was filtered through a 0.45 μm regenerate-cellulose membrane filter, and 10 µL of the filtered samples were injected into the HPLC-DAD system for Fer-Ger quantification. The study was performed in triplicate.

[3] = Hydrolysis in rat liver homogenates of free or SLM-encapsulated Fer-Ger; type: in vitro ADME
Experimental: Since SLMs were suspended in the medium, it was difficult to withdraw several homogeneous samples, and consequently, stability was assessed by a single sampling after 10 min of incubation. Dichloromethane (1 mL) was added, and 250 μL was withdrawn from the samples and quenched in 500 μL of ice-cold ethanol added with 100 μL of internal standard (100 μM carbazole dissolved in ethanol). After 5 min of centrifugation at 16,000× g, 600 μL aliquots were reduced to dryness under a nitrogen stream. […] The same procedure was adopted for free Fer-Ger by adding appropriate amounts of stock solution in DMSO to a volume of 3 mL of rat liver homogenates in order to obtain the final concentration of 30 µM (9.92 µg/mL). In this case, the Fer-Ger hydrolysis was analyzed both in the absence or in the presence of unloaded Ts SLMs or Ts-glu SLMs, whose amounts were equivalent to those of their parent-loaded FG Ts SLMs or FG Ts-glu SLMs, respectively. All the values obtained are the means of four independent experiments.

[4] = Hydrolysis kinetics in human whole blood; type: in vitro ADME
Experimental: Kinetic analysis of Fer-Ger was performed by incubating the compound at 37 °C in heparinized whole blood obtained from healthy human volunteers or from male Wistar rats weighing 200–250 g. In particular, appropriate amounts of stock solution in DMSO were added to a volume of 3 mL of whole blood in order to obtain the final concentration of 30 µM (9.92 µg/mL). Samples (100 μL) were withdrawn at defined time intervals and immediately treated. Specifically, they were firstly added to ice-cold water (500 µL); then, sulfosalicylic acid (10%, 50 µL) and the internal standard (100 μM carbazole dissolved in a mixture of MeOH and H2O 50:50 v/v, 50 µL) were added; finally, 1 mL of H2O-saturated ethyl acetate was used twice as extraction solvent. The samples were centrifuged (13,500× g for 10 min) and the organic phase was evaporated under a nitrogen stream. The residue was re-suspended in a mixture of H2O and CH3CN (50:50 v/v, 150 µL) and centrifuged (16,000× g for 5 min). […]
as §1, with “The computer program GraphPad Prism 7 (GraphPad, San Diego, CA, USA) allowed to perform the calculations.” left out
as §2

half-life at 30 µM ([1]; male, Wistar, heparinized whole blood, rat whole blood, 37 °C, 30 µM, pseudo-first-order kinetic, read-out: half-life (t1/2) of hydrolysis): 20.1 ± 0.75 min
time to almost complete degradation ([1]; rat whole blood): ≤ 2 h
hydrolysis rate relative to human whole blood ([1]; rat whole blood vs human whole blood): about 10 times faster
hydrolysis / stability [2]: total absence of hydrolysis processes
solubility at 48 h (Solubility measurements; DPBS, aqueous buffer, read-out: solubility in DPBS): 0.24 ± 0.01 µg/mL (≈ 0.726 µM)
solubility at 48 h (Solubility measurements; DPBS/methanol 70:30 v/v, aqueous with cosolvent or surfactant or cyclodextrin, DPBS and MeOH 70:30 v/v, read-out: solubility in mixture of DPBS and MeOH): 8.1 ± 0.3 µg/mL (≈ 24.5 µM)
solubility at 48 h (Solubility measurements; pure water, water, read-out: water solubility): 0.26 µg/mL and 0.77 µM
hydrolysis rate in the presence of unloaded SLMs ([3]; free Fer-Ger in rat liver homogenates with unloaded SLMs): substantially unaffected
prodrug hydrolyzed ([3]; free solubilized prodrug, 10 min incubation in rat liver homogenates, about 30 μM): about 90%
remaining amount of Fer-Ger ([4]; after three hours of incubation in human whole blood, % of overall incubated amount): about 50%
half-life at 30 µM ([4]; heparinized whole blood, human whole blood, 37 °C, 30 µM, pseudo-first order kinetic, read-out: half-life (t1/2) of hydrolysis): 194 ± 20.9 min
SMILES: COc1cc(/C=C/C(=O)OC/C=C(\C)CCC=C(C)C)ccc1O [Fer-Ger, Geranyl ferulate]
